PubChem BioAssay (NCI)
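All cell lines were grown in 96-well plates and treated with compound for 48 hours. The concentration for 50% growth inhibition is given as GI50. TGI denotes the concentration required for complete inhibition of growth.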

Tests used:
Assay in all cases: NCI tumour cell line growth inhibition, 48 h
[1] = test system: UACC-62 melanoma
[2] = test system: NCI-H460 lung
[3] = test system: EKVX NSCLC
[4] = test system: OVCAR-3 ovarian
[5] = test system: T-47D breast
[6] = test system: SR leukemia
[7] = test system: U251 CNS
[8] = test system: HCC-2998 colon
[9] = test system: SF-295 CNS
[10] = test system: HCT-116 colon
[11] = test system: SK-OV-3 ovarian
[12] = test system: SF-539 CNS
[13] = test system: HCT-15 colon
[14] = test system: SN12C renal
[15] = test system: MALME-3M melanoma
[16] = test system: BT-549 breast
[17] = test system: MDA-MB-435
[18] = test system: HS 578T breast
[19] = test system: KM12 colon
[20] = test system: OVCAR-5 ovarian
[21] = test system: MCF7 breast
[22] = test system: SK-MEL-2 melanoma
[23] = test system: OVCAR-8 ovarian
[24] = test system: SK-MEL-28 melanoma
[25] = test system: NCI/ADR-RES ovarian
[26] = test system: 786-0 renal
[27] = test system: A549 NSCLC
[28] = test system: MDA-MB-231 breast
[29] = test system: UACC-257 melanoma
[30] = test system: UO-31 renal
[31] = test system: ACHN renal
[32] = test system: HT29 colon
[33] = test system: A498 renal
[34] = test system: IGROV1 ovarian
[35] = test system: NCI-H23 lung
[36] = test system: DU-145 prostate
[37] = test system: PC-3 prostate
[38] = test system: MOLT-4 leukemia
[39] = test system: K-562 leukemia
[40] = test system: OVCAR-4 ovarian
[41] = test system: NCI-H522 lung
[42] = test system: HOP-62 NSCLC
[43] = test system: CAKI-1 renal
[44] = test system: SNB-19 CNS
[45] = test system: COLO 205 colon
[46] = test system: NCI-H226 lung
[47] = test system: SF-268 CNS
[48] = test system: RXF 393 renal
[49] = test system: LOX IMVI melanoma
[50] = test system: RPMI-8226 leukemia
[51] = test system: SNB-75 CNS
[52] = test system: TK-10 renal
[53] = test system: SW-620 colon
[54] = test system: CCRF-CEM leukemia
[55] = test system: SK-MEL-5 melanoma
[56] = test system: M14 melanoma

With `Cn1cccc1-c1cc(-c2cccs2)[nH]c(=O)c1C#N` the GI50 [1] was 73.1 µM, the TGI [1] was > 100 µM and the GI50 [2] was 69.6 µM. The TGI [2] was > 100 µM, the GI50 [3] was 52.3 µM and the TGI [3] was > 100 µM. For the same molecule, the GI50 [4] was > 100 µM, the TGI [4] was > 100 µM and the GI50 [5] was > 100 µM. For the same molecule, the TGI [5] was > 100 µM, the GI50 [6] was > 100 µM and the TGI [6] was > 100 µM. For the same molecule, the GI50 [7] was > 100 µM, the TGI [7] was > 100 µM and the GI50 [8] was > 100 µM. The TGI [8] was > 100 µM, the GI50 [9] was > 100 µM and the TGI [9] was > 100 µM. The GI50 [10] was > 100 µM, the TGI [10] was > 100 µM and the GI50 [11] was > 100 µM. For the same molecule, the TGI [11] was > 100 µM, the GI50 [12] was > 100 µM and the TGI [12] was > 100 µM. For the same molecule, the GI50 [13] was > 100 µM, the TGI [13] was > 100 µM and the GI50 [14] was > 100 µM. For the same molecule, the TGI [14] was > 100 µM, the GI50 [15] was > 100 µM and the TGI [15] was > 100 µM. The GI50 [16] was > 100 µM, the TGI [16] was > 100 µM and the GI50 [17] was > 100 µM. The TGI [17] was > 100 µM, the GI50 [18] was > 100 µM and the TGI [18] was > 100 µM. The GI50 [19] was > 100 µM, the TGI [19] was > 100 µM and the GI50 [20] was > 100 µM. For the same molecule, the TGI [20] was > 100 µM, the GI50 [21] was > 100 µM and the TGI [21] was > 100 µM. The GI50 [22] was > 100 µM, the TGI [22] was > 100 µM and the GI50 [23] was > 100 µM. The TGI [23] was > 100 µM, the GI50 [24] was > 100 µM and the TGI [24] was > 100 µM. The GI50 [25] was > 100 µM, the TGI [25] was > 100 µM and the GI50 [26] was > 100 µM. The TGI [26] was > 100 µM, the GI50 [27] was > 100 µM and the TGI [27] was > 100 µM. For the same molecule, the GI50 [28] was > 100 µM, the TGI [28] was > 100 µM and the GI50 [29] was > 100 µM. For the same molecule, the TGI [29] was > 100 µM, the GI50 [30] was 13.8 µM and the TGI [30] was 27.5 µM. The GI50 [31] was > 100 µM, the TGI [31] was > 100 µM and the GI50 [32] was > 100 µM. For the same molecule, the TGI [32] was > 100 µM, the GI50 [33] was 17.9 µM and the TGI [33] was > 100 µM. The GI50 [34] was 23 µM, the TGI [34] was > 100 µM and the GI50 [35] was > 100 µM. The TGI [35] was > 100 µM, the GI50 [36] was > 100 µM and the TGI [36] was > 100 µM. The GI50 [37] was > 100 µM, the TGI [37] was > 100 µM and the GI50 [38] was > 100 µM. For the same molecule, the TGI [38] was > 100 µM, the GI50 [39] was > 100 µM and the TGI [39] was > 100 µM. For the same molecule, the GI50 [40] was > 100 µM, the TGI [40] was > 100 µM and the GI50 [41] was 25.9 µM. The TGI [41] was > 100 µM, the GI50 [42] was 83.9 µM and the TGI [42] was > 100 µM. The GI50 [43] was > 100 µM, the TGI [43] was > 100 µM and the GI50 [44] was > 100 µM. For the same molecule, the TGI [44] was > 100 µM, the GI50 [45] was > 100 µM and the TGI [45] was > 100 µM. The GI50 [46] was > 100 µM, the TGI [46] was > 100 µM and the GI50 [47] was 20.6 µM. For the same molecule, the TGI [47] was > 100 µM, the GI50 [48] was > 100 µM and the TGI [48] was > 100 µM. For the same molecule, the GI50 [49] was > 100 µM, the TGI [49] was > 100 µM and the GI50 [50] was > 100 µM. For the same molecule, the TGI [50] was > 100 µM, the GI50 [51] was 37.7 µM and the TGI [51] was > 100 µM. For the same molecule, the GI50 [52] was > 100 µM, the TGI [52] was > 100 µM and the GI50 [53] was > 100 µM. The TGI [53] was > 100 µM, the GI50 [54] was > 100 µM and the TGI [54] was > 100 µM. The GI50 [55] was > 100 µM and the TGI [55] was > 100 µM.
`COc1ccc(-c2nn(-c3cccc(NC(=O)Nc4ccc(Cl)c(C(F)(F)F)c4)c3)cc2-c2ccncc2)cc1Cl` showed a GI50 [1] of 1.93 µM, a TGI [1] of 5.01 µM and a GI50 [2] of 1.99 µM. For the same molecule, the TGI [2] was 8.99 µM, the GI50 [5] was 2.22 µM and the TGI [5] was > 100 µM. The GI50 [6] was 1.82 µM, the TGI [6] was 5.65 µM and the GI50 [7] was 1.32 µM. The TGI [7] was 3.34 µM, the GI50 [8] was 5.51 µM and the TGI [8] was 27 µM. It also gave a GI50 [9] of 2.31 µM, a TGI [9] of 7.23 µM and a GI50 [10] of 2.02 µM. For the same molecule, the TGI [10] was 8.6 µM, the GI50 [11] was 4.31 µM and the TGI [11] was > 100 µM. The GI50 [12] was 2.04 µM, the TGI [12] was 5.11 µM and the GI50 [13] was 2.37 µM. The TGI [13] was 19.2 µM, the GI50 [14] was 2.99 µM and the TGI [14] was > 100 µM. For the same molecule, the GI50 [15] was 2.27 µM, the TGI [15] was 7.58 µM and the GI50 [16] was 2.08 µM. For the same molecule, the TGI [16] was 4.83 µM, the GI50 [17] was 2.16 µM and the TGI [17] was 5.92 µM. For the same molecule, the GI50 [18] was 2.27 µM, the TGI [18] was 9.3 µM and the GI50 [19] was 2 µM. For the same molecule, the TGI [19] was 8.55 µM, the GI50 [20] was 4.36 µM and the TGI [20] was 30.8 µM. It also gave a GI50 [21] of 2.19 µM, a TGI [21] of 13.7 µM and a GI50 [22] of 2.77 µM. It also gave a TGI [22] of 5.71 µM, a GI50 [23] of 2.43 µM and a TGI [23] of 13.1 µM. The GI50 [24] was 3.08 µM, the TGI [24] was 13.3 µM and the GI50 [25] was 2.62 µM. For the same molecule, the TGI [25] was 9.84 µM, the GI50 [26] was 1.91 µM and the TGI [26] was 4.49 µM. The GI50 [27] was 1.98 µM, the TGI [27] was > 100 µM and the GI50 [28] was 2.29 µM. It also gave a TGI [28] of 7.35 µM, a GI50 [29] of 2.44 µM and a TGI [29] of 7.42 µM. For the same molecule, the GI50 [30] was 2.12 µM, the TGI [30] was 13.3 µM and the GI50 [31] was 2.32 µM. The TGI [31] was 13.8 µM, the GI50 [32] was 3.18 µM and the TGI [32] was 13.1 µM. The GI50 [33] was 2.4 µM, the TGI [33] was 8.01 µM and the GI50 [34] was 3.65 µM. It also gave a TGI [34] of 29.5 µM, a GI50 [35] of 3.01 µM and a TGI [35] of 14.3 µM. The GI50 [36] was 4.47 µM, the TGI [36] was > 100 µM and the GI50 [37] was 1.32 µM. The TGI [37] was 6.85 µM, the GI50 [38] was 2.08 µM and the TGI [38] was 6.74 µM. The GI50 [40] was 2.9 µM, the TGI [40] was 9.8 µM and the GI50 [56] was 1.9 µM. The TGI [56] was 4.44 µM, the GI50 [41] was 1.85 µM and the TGI [41] was 6.77 µM. It also gave a GI50 [42] of 3.37 µM, a TGI [42] of 17.3 µM and a GI50 [43] of 2.18 µM. The TGI [43] was > 100 µM, the GI50 [44] was 3.77 µM and the TGI [44] was > 100 µM. For the same molecule, the GI50 [45] was 2.01 µM, the TGI [45] was 4.2 µM and the GI50 [46] was 2.53 µM. For the same molecule, the TGI [46] was 8.22 µM, the GI50 [47] was 4.21 µM and the TGI [47] was 35.9 µM. The GI50 [48] was 1.42 µM, the TGI [48] was 4.83 µM and the GI50 [49] was 2.95 µM. The TGI [49] was 10.6 µM, the GI50 [50] was 1.43 µM and the TGI [50] was 5.29 µM. It also gave a GI50 [51] of 1.91 µM, a TGI [51] of 9.56 µM and a GI50 [52] of 4.8 µM. It also gave a TGI [52] of 92.2 µM, a GI50 [53] of 3.66 µM and a TGI [53] of 63.9 µM. The GI50 [54] was 1.9 µM, the TGI [54] was 6.4 µM and the GI50 [55] was 1.69 µM. The TGI [55] was 3.61 µM.
